Reference: ChEMBL document CHEMBL1143457, “Benzyl ether structure-activity relationships in a series of ketopiperazine-based renin inhibitors” (Bioorg Med Chem Lett, 2005)
Converted amounts (≈) assume the structure as drawn.

How the values were obtained:
[1] = target: T1, Renin (Homo sapiens, UniProt P00797); assay: Inhibitory activity against renin in fluorescent tGFP assay
T1 sequence (P00797 whole entry): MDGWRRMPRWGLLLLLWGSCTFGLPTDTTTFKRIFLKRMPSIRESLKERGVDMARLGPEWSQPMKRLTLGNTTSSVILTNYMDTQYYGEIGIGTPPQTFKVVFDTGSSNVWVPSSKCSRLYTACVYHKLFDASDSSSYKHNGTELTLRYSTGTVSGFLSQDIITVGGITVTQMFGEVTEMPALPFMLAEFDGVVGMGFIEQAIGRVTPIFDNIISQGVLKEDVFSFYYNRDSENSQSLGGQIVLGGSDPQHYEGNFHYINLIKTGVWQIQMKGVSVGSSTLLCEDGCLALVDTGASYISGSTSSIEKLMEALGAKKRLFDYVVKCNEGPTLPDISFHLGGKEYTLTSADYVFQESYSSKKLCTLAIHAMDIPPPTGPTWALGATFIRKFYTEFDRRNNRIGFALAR

[2] = Apparent solubility was measured at PH 6.5 by nepholometric method; format: ADME; details: buffer
[3] = Distribution coefficient at PH 7.4 was determined; format: physicochemical; details: octanol/water
[4] = target: CYP3A4 (Homo sapiens, UniProt P08684); assay: Inhibition of CYP3A4 at 3 uM was measured using fluorogenic substrate 7-Benzyloxy-4-(trifluoromethyl)-coumarin; format: ADME; details: probe 7-Benzyloxy-4-(trifluoromethyl)-coumarin
CYP3A4, sequence (P08684 whole entry): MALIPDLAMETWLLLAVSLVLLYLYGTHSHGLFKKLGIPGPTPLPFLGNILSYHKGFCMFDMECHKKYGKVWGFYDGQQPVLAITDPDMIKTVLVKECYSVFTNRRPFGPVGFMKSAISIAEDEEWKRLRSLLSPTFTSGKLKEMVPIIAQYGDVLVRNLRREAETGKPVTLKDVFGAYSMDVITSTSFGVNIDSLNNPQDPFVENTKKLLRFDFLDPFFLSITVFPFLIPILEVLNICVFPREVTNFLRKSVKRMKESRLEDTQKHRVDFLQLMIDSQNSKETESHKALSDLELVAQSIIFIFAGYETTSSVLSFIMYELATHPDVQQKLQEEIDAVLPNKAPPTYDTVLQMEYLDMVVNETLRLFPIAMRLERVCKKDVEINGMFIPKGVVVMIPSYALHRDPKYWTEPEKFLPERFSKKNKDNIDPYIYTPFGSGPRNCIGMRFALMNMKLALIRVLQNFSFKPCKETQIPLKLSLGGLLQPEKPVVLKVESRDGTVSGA

Row | Compound | IC50 [1] | also measured
1 | COc1ccccc1COCCCOc1ccc(N2C(=O)CNC[C@@H]2COCc2ccccc2C(F)(F)F)cc1 | 270 nM | 
2 | COc1ccccc1COCCCOc1ccc(N2C(=O)CNC[C@@H]2COCc2cccc(C#N)c2)cc1 | 1200 nM | 
3 | COc1ccccc1COCCCOc1ccc(N2C(=O)CNC[C@@H]2COCc2cccc(Cl)c2)cc1 | 330 nM | 
4 | COc1ccccc1COCCCOc1ccc(N2C(=O)CNC[C@@H]2COCc2cccnc2)cc1 | 120 nM | solubility kinetic [2]: 100 µg/mL (≈ 203 µM); logD [3]: 2.9; inhibition at 3 µM [4]: 44%
5 | COc1ccccc1COCCCOc1ccc(N2C(=O)CNC[C@H]2COCc2cccnc2)cc1 | > 10000 nM | 
6 | COc1ccccc1COCCCOc1ccc(N2C(=O)CNC[C@@H]2COCc2ccncc2)cc1 | > 1000 nM | 
7 | COc1ccccc1COCCCOc1ccc(N2C(=O)CNC[C@H]2COCc2ccc(Cl)c(C(F)(F)F)c2)cc1 | 594 nM | 
8 | COc1ccccc1COCCCOc1ccc(N2C(=O)CNC[C@@H]2COCc2cccc(OC(F)(F)F)c2)cc1 | 410 nM | 
9 | COc1cccc(COC[C@H]2CNCC(=O)N2c2ccc(OCCCOCc3ccccc3OC)cc2)c1 | 600 nM | 
10 | COc1ccccc1COCCCOc1ccc(N2C(=O)CNC[C@@H]2COCc2ccc(Cl)c(C(F)(F)F)c2)cc1 | 120 nM | solubility kinetic [2]: 3 µg/mL (≈ 5.06 µM); logD [3]: 3.7; inhibition at 3 µM [4]: 97%
11 | COc1ccccc1COCCCOc1ccc(N2C(=O)CNC[C@@H]2COCc2ccccc2F)cc1 | 230 nM | 
12 | COc1ccccc1COCCCOc1ccc(N2C(=O)CNC[C@@H]2COCc2ccc(F)c(C)c2)cc1 | 270 nM | 
13 | COc1ccccc1COCCCOc1ccc(N2C(=O)CNC[C@@H]2COCc2ccc(C(F)(F)F)cc2)cc1 | 6800 nM | 
14 | COc1ccccc1COCCCOc1ccc(N2C(=O)CNC[C@@H]2COCc2ccc(F)c(C(F)(F)F)c2)cc1 | 140 nM | solubility kinetic [2]: 7 µg/mL (≈ 12.1 µM); logD [3]: 3.7; inhibition at 3 µM [4]: 87%
15 | COc1ccccc1COCCCOc1ccc(N2C(=O)CNC[C@@H]2COc2ccc3c(c2)N(CCNC(C)=O)CCC3)cc1 | 0.4 nM | 
16 | COc1ccccc1COCCCOc1ccc(N2C(=O)CNC[C@@H]2COCc2cc(Cl)cc(Cl)c2)cc1 | 180 nM | 
17 | COc1ccccc1COCCCOc1ccc(N2C(=O)CNC[C@@H]2COCc2ccc(F)cc2Cl)cc1 | 410 nM | 
18 | COc1ccccc1COCCCOc1ccc(N2C(=O)CNC[C@@H]2COCc2ccc(F)c(F)c2)cc1 | 250 nM | 
19 | COc1ccccc1COCCCOc1ccc(N2C(=O)CNC[C@@H]2COCc2ccccn2)cc1 | > 1000 nM | 
20 | COc1ccccc1COCCCOc1ccc(N2C(=O)CNC[C@@H]2COCc2ccccc2OC)cc1 | 900 nM | 
21 | COc1ccccc1COCCCOc1ccc(N2C(=O)CNC[C@@H]2COCc2cc(F)cc(F)c2)cc1 | 1600 nM | 
22 | COc1ccccc1COCCCOc1ccc(N2C(=O)CNC[C@@H]2COCc2ccc(Cl)cc2)cc1 | 300 nM | 
23 | COc1ccccc1COCCCOc1ccc(N2C(=O)CNC[C@@H]2COCc2ccc(C)c(Cl)c2)cc1 | 260 nM | 
24 | COc1ccccc1COCCCOc1ccc(N2C(=O)CNC[C@@H]2COCc2cccc(C(F)(F)F)c2F)cc1 | 270 nM | 
25 | COc1ccccc1COCCCOc1ccc(N2C(=O)CNC[C@@H]2COCc2cccc(C(F)(F)F)c2)cc1 | 230 nM | 
